Measured values from PubChem BioAssay (NCI).
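1) Cells in 96-well plates. 2) Compound, 48 h, 5 concentrations. 3) Linear interpolation between surrounding doses. 4) Unreached endpoint = highest concentration. GI50 = concentration required for 50% inhibition of growth. TGI: total growth inhibition.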

How the values were obtained:
Experiment in all cases: inhibition of tumour cell growth, NCI panel, 48 h
[1] = tested on: A498 renal
[2] = tested on: HL-60(TB) leukemia
[3] = tested on: HT29 colon
[4] = tested on: MDA-MB-231 breast
[5] = tested on: OVCAR-3 ovarian
[6] = tested on: RXF 393 renal
[7] = tested on: SF-539 CNS
[8] = tested on: SK-MEL-28 melanoma
[9] = tested on: SN12C renal
[10] = tested on: SNB-75 CNS

O=C1NC(O)c2ccccc2O1 (stereo not given)
TGI [1]: > 100 µM
TGI [2]: > 100 µM
TGI [3]: > 100 µM
TGI [4]: > 100 µM
TGI [5]: > 100 µM
TGI [6]: > 100 µM
TGI [7]: > 100 µM
TGI [8]: > 100 µM
TGI [9]: > 100 µM
TGI [10]: > 100 µM

C=C1C(=O)O[C@H]2[C@H]1CC/C(Cn1cc(Cc3c[nH]c4ccccc34)nn1)=C\CC[C@@]1(C)O[C@@H]21
GI50 [1]: 3.9 µM
TGI [1]: 14.3 µM
GI50 [2]: 2.02 µM
TGI [2]: 4.74 µM
GI50 [3]: 1.95 µM
TGI [3]: 3.72 µM
GI50 [4]: 1.72 µM
TGI [4]: 3.48 µM
GI50 [5]: 1.73 µM
TGI [5]: 3.15 µM
GI50 [6]: 1.63 µM
TGI [6]: 3.63 µM
GI50 [7]: 1.76 µM
TGI [7]: 3.35 µM
GI50 [8]: 1.66 µM
TGI [8]: 3.22 µM
GI50 [9]: 1.98 µM
TGI [9]: 4.42 µM
GI50 [10]: 3.08 µM
TGI [10]: 12.5 µM

COc1cc(-c2nn(-c3cccc(NC(=O)NCCNS(=O)(=O)c4ccc(Cl)cc4)c3)cc2-c2ccncc2)ccc1Cl
GI50 [1]: 0.578 µM
TGI [1]: 4.31 µM
GI50 [2]: 0.466 µM
TGI [2]: > 100 µM
GI50 [3]: 0.37 µM
TGI [3]: 1.51 µM
GI50 [4]: 1.51 µM
TGI [4]: 4.38 µM
GI50 [5]: 0.371 µM
TGI [5]: 1.55 µM
GI50 [6]: 0.307 µM
TGI [6]: 2.18 µM
GI50 [7]: 0.48 µM
TGI [7]: 2.11 µM
GI50 [8]: 1.48 µM
TGI [8]: 13.2 µM
GI50 [9]: 1.19 µM
TGI [9]: 13.2 µM
GI50 [10]: 0.353 µM
TGI [10]: > 100 µM

C=C1C(=O)O[C@H]2[C@H]1CC/C(COC(=O)c1cn(C)c3ccccc13)=C\CC[C@@]1(C)O[C@@H]21
GI50 [1]: 1.59 µM
TGI [1]: 3.05 µM
GI50 [2]: 1.54 µM
TGI [2]: 4.17 µM
GI50 [3]: 0.526 µM
TGI [3]: 1.78 µM
GI50 [4]: 1.05 µM
TGI [4]: 2.47 µM
GI50 [5]: 0.384 µM
TGI [5]: 1.48 µM
GI50 [6]: 0.589 µM
TGI [6]: 2.11 µM
GI50 [7]: 0.741 µM
TGI [7]: 2.13 µM
GI50 [8]: 1.55 µM
TGI [8]: 3.08 µM
GI50 [9]: 0.719 µM
TGI [9]: 2.3 µM
GI50 [10]: 1.09 µM
TGI [10]: 2.32 µM

COc1cccc(-n2ncc3c(N/N=C/c4ccc(C)cc4)ncnc32)c1
GI50 [1]: > 5.43 µM
TGI [1]: > 25 µM
GI50 [2]: > 25 µM
TGI [2]: > 25 µM
GI50 [3]: 1.89 µM
TGI [3]: > 25 µM
GI50 [4]: > 25 µM
TGI [4]: > 25 µM
GI50 [5]: > 25 µM
TGI [5]: > 25 µM
GI50 [6]: > 25 µM
TGI [6]: > 25 µM
GI50 [7]: > 25 µM
TGI [7]: > 25 µM
GI50 [8]: > 25 µM
TGI [8]: > 25 µM
GI50 [9]: > 25 µM
TGI [9]: > 25 µM
GI50 [10]: > 25 µM
TGI [10]: > 25 µM

CCN(CC)CCC(=O)OC1C(C)=CC(C)C(=O)CC(C(C)CC2CCC(O)C(OC)C2)OC(=O)C2CCCCN2C(=O)C(=O)[C@@]2(O)OC(CCC2C)CC(OC)\C(C)=C/C=C/C=C/C(C)CC(C)C(=O)C1OC (stereo not given in full)
TGI [1]: 17.6 µM
TGI [2]: 16 µM
TGI [3]: 19.9 µM
TGI [4]: 26.7 µM
TGI [5]: 23.5 µM
TGI [6]: 15.2 µM
TGI [7]: 15.2 µM
TGI [8]: 19.3 µM
TGI [9]: 21.1 µM
TGI [10]: 0.971 µM

c1ccc2cc(Cn3cc[n+](Cc4ccc5ccccc5c4)c3)ccc2c1
GI50 [1]: 0.0254 µM
TGI [1]: 4.69 µM
GI50 [2]: 0.264 µM
TGI [2]: 1.35 µM
GI50 [3]: 0.555 µM
TGI [3]: 5.74 µM
GI50 [4]: 0.729 µM
TGI [4]: 2.53 µM
GI50 [5]: 0.675 µM
TGI [5]: 2.18 µM
GI50 [6]: 1.25 µM
TGI [6]: 4.72 µM
GI50 [7]: 1.98 µM
TGI [7]: 9.27 µM
GI50 [8]: 1.2 µM
TGI [8]: 3.36 µM
GI50 [9]: 0.846 µM
TGI [9]: 7.03 µM
GI50 [10]: 0.328 µM
TGI [10]: 2.91 µM

COC1(OC)C2(Cl)C(Cl)=C(Cl)C1(Cl)C1c3ccc(C(C)=O)c4cccc(c34)C12 (stereo not given)
TGI [1]: 32.1 µM
TGI [2]: 47.3 µM
TGI [3]: > 100 µM
TGI [4]: > 100 µM
TGI [5]: > 100 µM
TGI [6]: > 100 µM
TGI [7]: > 100 µM
TGI [8]: > 100 µM
TGI [9]: > 100 µM
TGI [10]: > 89.9 µM

COc1cccc(Sc2ccc([N+](=O)[O-])c3no[n+]([O-])c23)c1
GI50 [1]: 15.7 µM
TGI [1]: 34.6 µM
GI50 [2]: 5.12 µM
TGI [2]: 14.6 µM
GI50 [3]: 9.8 µM
TGI [3]: > 55.6 µM
GI50 [4]: 11.2 µM
TGI [4]: 28 µM
GI50 [5]: 2.83 µM
TGI [5]: 7.48 µM
GI50 [6]: 8.99 µM
TGI [6]: 23.8 µM
GI50 [7]: 14.7 µM
TGI [7]: 28.1 µM
GI50 [8]: 6.52 µM
TGI [8]: 14 µM
GI50 [9]: 16.9 µM
TGI [9]: 46.8 µM
GI50 [10]: 13.9 µM
TGI [10]: 39.4 µM

Cc1c(N)nc([C@H](CC(N)=O)NC[C@H](N)C(N)=O)nc1C(=O)N[C@H](C(=O)N[C@H](C)[C@@H](O)CC(=O)N[C@H](C(=O)NC(O[C@@H]1O[C@@H](C)[C@@H](N)[C@@H](O)[C@H]1O)C(O)c1nc(-c2nc(C(=O)NCCCCN)cs2)cs1)[C@@H](C)O)[C@@H](O[C@@H]1O[C@@H](CO)[C@@H](O)[C@H](O)[C@@H]1O[C@H]1O[C@H](CO)[C@@H](O)[C@H](OC(N)=O)[C@@H]1O)c1c[nH]cn1 (stereo not given in full)
TGI [1]: > 50 µM
TGI [2]: > 50 µM
TGI [3]: > 50 µM
TGI [4]: > 50 µM
TGI [5]: > 50 µM
TGI [6]: > 50 µM
TGI [7]: > 50 µM
TGI [8]: > 50 µM
TGI [9]: > 50 µM
TGI [10]: > 50 µM

CCC#CC[C@H](O)C/C=C1/C(=O)C=C[C@@H]1C/C=C\CCCC(=O)OC
GI50 [1]: 6.82 µM
TGI [1]: 13.7 µM
GI50 [2]: 1.31 µM
TGI [2]: 3.91 µM
GI50 [3]: 0.991 µM
TGI [3]: 2.46 µM
GI50 [4]: 1.95 µM
TGI [4]: 7.78 µM
GI50 [5]: 1.55 µM
TGI [5]: 6.11 µM
GI50 [6]: 0.865 µM
TGI [6]: 1.64 µM
GI50 [7]: 1.31 µM
TGI [7]: 3.79 µM
GI50 [8]: 1.12 µM
TGI [8]: 3.25 µM
GI50 [9]: 1.77 µM
TGI [9]: 8.12 µM
GI50 [10]: 5.07 µM
TGI [10]: 13.4 µM
